{"source": "patent US20030220300A1", "about": "“Reduction of hair growth” (priority 2002, published 2003)", "key": {"[1]": {"test_system": "Human hair follicles in growth phase (anagen)", "experiment": "Human hair follicle growth assay", "assay_type": "cell-based", "conditions": "for % Reduction of human hair follicle growth / Hair follicle length increase (mm) Treated: day 0 to day 7 (Table II)", "from_the_text": "Human Hair Follicle Growth Assay\nTissue source—Human skin was obtained from a plastic surgeon as a by-product of face-lift procedures. Immediately after removal, the skin was placed in Williams E medium containing antibiotics and refrigerated. The Williams E medium is a commercially obtained medium which has been formulated with essential nutrients for maintaining viability of tissues or cells such as of hair follicle in an in-vitro environment.\nHair Follicle Isolation and Culture—Human hair follicles in growth phase (anagen) were isolated from face-lift tissue (obtained from plastic surgeons) under dissecting scope using a scalpel and watchmakers forceps. The skin was sliced into thin strips exposing 2-3 rows of follicles that could readily be dissected. Follicles were placed into 0.5 ml William's E medium (Life Technologies, Gaithersburg, Md.) supplemented with 2 mM L-glutamine, 10 μg/ml insulin, 10 ng/ml hydrocortisone, 100 units of penicillin, 0.1 mg/ml streptomycin and 0.25 μg/ml amphotericin B. The follicles were incubated in 24-well plates (1 follicle/well) at 37° C. in an atmosphere of 5% CO2 and 95% air. Thiazolidinediones are dissolved into dimethyl sulfoxide as 100-fold stock solution. The control hair follicles were treated with dimethyl sulfoxide without thiazolidinedione. The follicles were photographed in the 24-well plates under the dissecting scope at a power of 10×. Typically, image recordings were made on day 0 (day follicles were placed in culture), and again on day 7. The length of Hair follicle was assessed using an image analysis software system (Jasc Image Robot). The growth of hair fiber was calculated by the subtracting the follicle length on day 0 from that determined on day 7."}, "[2]": {"test_system": "Golden Syrian hamster flank organs (hair growth)", "experiment": "Golden Syrian hamster assay (hair mass assay)", "assay_type": "in vivo", "conditions": "topical, three weeks", "from_the_text": "Golden Syrian Hamster Assay\nMale intact Golden Syrian hamsters are considered acceptable models for human beard hair growth in that they display oval shaped flank organs, one on each side, each about 8 mm. in major diameter. These organs produce fine light colored hair typical of the animal pelage found on the body. In response to androgens the flank organs produce dark coarse hair similar to male human beard hair. To evaluate the effectiveness of a composition in reducing hair growth, the flank organs of each of a group of hamsters are depilated by applying a thioglycolate based chemical depilatory (Surgex) and/or shaved. To one organ of each animal 10 μl. of vehicle alone once a day is applied, while to the other organ of each animal an equal amount of vehicle containing the ligand under evaluation is applied. After three weeks of topical applications (one application per day for five days a week), the flank organs are shaved and the amount of recovered hair (hair mass) from each is weighed. Percent-reduction of hair growth is calculated by subtracting the hair mass (mg) value of the test compound treated side from the hair mass value of the vehicle treated side; the delta value obtained is then divided by the hair mass value of the vehicle treated side, and the resultant number is multiplied by 100.\nThe above-described assay will be referred to herein as the “Golden Syrian hamster” assay or “hair mass” assay. Preferred compositions provide a reduction in hair growth of at least about 15% and more preferably at least about 35%, when tested in the Golden Syrian hamster assay."}}}
{"smiles": "O=C1NC(=S)SC1=Cc1cc([N+](=O)[O-])ccc1Sc1ccccc1", "note": "[5-(5-nitro-2-phenylsulfanyl-benzylidene)-2-thioxo-thiazolidin-4-one]", "values": [{"measurement": "% Reduction", "setting": "[1]; 0.1 μM (Table VI)", "value": "66.9 ± 15.2", "unit": "%"}, {"measurement": "Hair follicle length increase (mm)", "setting": "[1]; 0.1 μM (Table VI)", "value": "0.37 ± 0.17", "unit": "mm"}, {"measurement": "% Reduction", "setting": "[1]; 0.5 μM (Table VI)", "value": "85.7 ± 15.2", "unit": "%"}, {"measurement": "Hair follicle length increase (mm)", "setting": "[1]; 0.5 μM (Table VI)", "value": "0.16 ± 0.17", "unit": "mm"}, {"measurement": "% Reduction", "setting": "[1]; 1.0 μM (Table VI)", "value": "93.7 ± 7.1", "unit": "%"}, {"measurement": "Hair follicle length increase (mm)", "setting": "[1]; 1.0 μM (Table VI)", "value": "0.07 ± 0.08", "unit": "mm"}, {"measurement": "% Reduction of human hair follicle growth", "setting": "[1]; 10 μM", "value": "94.6 ± 3.9", "unit": "%"}, {"measurement": "Hair follicle length increase (mm) Treated", "setting": "[1]; 10 μM", "value": "0.11 ± 0.08", "unit": "mm"}, {"measurement": "Effect on human hair growth (in words)", "setting": "[1]; human hair follicle growth assay, summary of Table II", "value": "can reduce human hair growth"}]}
{"smiles": "CC1(COc2ccc(CC3SC(=O)NC3=O)cc2)CCCCC1", "note": "(centres unmarked) [Ciglitazone, ciglitazone]", "values": [{"measurement": "% Reduction of hamster hair mass", "setting": "[2]; dose 1.3%, vehicle A", "value": "22.7 ± 5.8", "unit": "%"}, {"measurement": "Treated (mg) hair mass", "setting": "[2]; dose 1.3%, vehicle A", "value": "2.78 ± 0.23", "unit": "mg"}, {"measurement": "% Reduction of hamster hair mass", "setting": "[2]; dose 1.3%, vehicle A, listed as ciglitazone", "value": 22.7, "unit": "%"}, {"measurement": "% Reduction", "setting": "[1]; 3 μM (Table III)", "value": "38.2 ± 23.0", "unit": "%"}, {"measurement": "Hair follicle length increase (mm)", "setting": "[1]; 3 μM (Table III)", "value": "1.34 ± 0.5", "unit": "mm"}, {"measurement": "% Reduction", "setting": "[1]; 6 μM (Table III)", "value": "75.1 ± 13.8", "unit": "%"}, {"measurement": "Hair follicle length increase (mm)", "setting": "[1]; 6 μM (Table III)", "value": "0.54 ± 0.3", "unit": "mm"}, {"measurement": "% Reduction", "setting": "[1]; 9 μM (Table III)", "value": "90.8 ± 9.2", "unit": "%"}, {"measurement": "Hair follicle length increase (mm)", "setting": "[1]; 9 μM (Table III)", "value": "0.2 ± 0.2", "unit": "mm"}, {"measurement": "% Reduction of human hair follicle growth", "setting": "[1]; 20 μM", "value": "87.5 ± 15.6", "unit": "%"}, {"measurement": "Hair follicle length increase (mm) Treated", "setting": "[1]; 20 μM", "value": "0.19 ± 0.24", "unit": "mm"}]}
{"smiles": "CCc1ccc(CCOc2ccc(CC3SC(=O)NC3=O)cc2)nc1", "note": "(centres unmarked) [Pioglitazone, pioglitazone]", "values": [{"measurement": "% Reduction of hamster hair mass", "setting": "[2]; dose 5%, vehicle B", "value": "47.7 ± 4.1", "unit": "%"}, {"measurement": "Treated (mg) hair mass", "setting": "[2]; dose 5%, vehicle B", "value": "1.32 ± 0.06", "unit": "mg"}, {"measurement": "% Reduction of hamster hair mass", "setting": "[2]; dose 5%, vehicle B, listed as pioglitazone", "value": 47.7, "unit": "%"}, {"measurement": "% Reduction", "setting": "[1]; 15 μM (Table IV)", "value": "30.2 ± 19.8", "unit": "%"}, {"measurement": "Hair follicle length increase (mm)", "setting": "[1]; 15 μM (Table IV)", "value": "0.67 ± 0.19", "unit": "mm"}, {"measurement": "% Reduction", "setting": "[1]; 30 μM (Table IV)", "value": "76.0 ± 16.7", "unit": "%"}, {"measurement": "Hair follicle length increase (mm)", "setting": "[1]; 30 μM (Table IV)", "value": "0.23 ± 0.16", "unit": "mm"}, {"measurement": "% Reduction", "setting": "[1]; 45 μM (Table IV)", "value": "89.6 ± 14.6", "unit": "%"}, {"measurement": "Hair follicle length increase (mm)", "setting": "[1]; 45 μM (Table IV)", "value": "0.1 ± 0.14", "unit": "mm"}, {"measurement": "% Reduction of human hair follicle growth", "setting": "[1]; 50 μM", "value": "86.7 ± 6.2", "unit": "%"}, {"measurement": "Hair follicle length increase (mm) Treated", "setting": "[1]; 50 μM", "value": "0.15 ± 0.07", "unit": "mm"}]}
{"smiles": "CN(CCOc1ccc(CC2SC(=O)NC2=O)cc1)c1ccccn1", "note": "(centres unmarked) [Rosiglitazone, rosiglitazone]", "values": [{"measurement": "% Reduction of hamster hair mass", "setting": "[2]; dose 10%, vehicle A", "value": "40.0 ± 5.0", "unit": "%"}, {"measurement": "Treated (mg) hair mass", "setting": "[2]; dose 10%, vehicle A", "value": "1.78 ± 0.71", "unit": "mg"}, {"measurement": "% Reduction of hamster hair mass", "setting": "[2]; dose 10%, vehicle A, listed as rosiglitazone", "value": 40, "unit": "%"}, {"measurement": "% Reduction", "setting": "[1]; 20 μM (Table V)", "value": "34.8 ± 20.6", "unit": "%"}, {"measurement": "Hair follicle length increase (mm)", "setting": "[1]; 20 μM (Table V)", "value": "0.92 ± 0.29", "unit": "mm"}, {"measurement": "% Reduction", "setting": "[1]; 40 μM (Table V)", "value": "47.5 ± 10.6", "unit": "%"}, {"measurement": "Hair follicle length increase (mm)", "setting": "[1]; 40 μM (Table V)", "value": "0.74 ± 0.15", "unit": "mm"}, {"measurement": "% Reduction", "setting": "[1]; 60 μM (Table V)", "value": "63.1 ± 14.1", "unit": "%"}, {"measurement": "Hair follicle length increase (mm)", "setting": "[1]; 60 μM (Table V)", "value": "0.52 ± 0.2", "unit": "mm"}, {"measurement": "% Reduction of human hair follicle growth", "setting": "[1]; 100 μM", "value": "75.2 ± 16.5", "unit": "%"}, {"measurement": "Hair follicle length increase (mm) Treated", "setting": "[1]; 100 μM", "value": "0.24 ± 0.16", "unit": "mm"}]}
{"smiles": "Cc1c(C)c2c(c(C)c1O)CCC(C)(COc1ccc(CC3SC(=O)NC3=O)cc1)O2", "note": "(centres unmarked) [Troglitazone, troglitazone]", "values": [{"measurement": "% Reduction of human hair follicle growth", "setting": "[1]; 100 μM", "value": "91.5 ± 6.2", "unit": "%"}, {"measurement": "Hair follicle length increase (mm) Treated", "setting": "[1]; 100 μM", "value": "0.11 ± 0.08", "unit": "mm"}]}
